This is an account of results in publication PMC8557901 (Microbiology Spectrum, 2021).

For data set [1], the system named is P. falciparum F32-ART5 and F32-TEM. Nature of the data set: Recrudescence assay F32-ART5 versus F32-TEM. Format: cell-based, Plasmodium falciparum. Conditions: 48 h drug exposure; M1 2.5 and 10 μM; artemisinin 18 μM. The protocol: The Plasmodium falciparum artemisinin-resistant strain F32-ART5 and its twin artemisinin-sensitive line F32-TEM ([30], [31]) were cultivated at 37°C with 5% CO2 in human red blood cells (EFS [French Blood Bank]) diluted to 2% hematocrit in RPMI 1640 medium supplemented with 5% human serum (EFS) as previously reported ([47]).
A recrudescence assay was performed to evaluate the ability of the F32-ART5 parasite line to survive drug exposure in comparison to that of the F32-TEM parasite line ([30], [31]) in order to evaluate the risk of cross-resistance between artemisinin and M1. D-Sorbitol-synchronized ring-stage parasites at 3% parasitemia (2% hematocrit) were exposed to the drug for 48 h. After drug exposure, parasite cultures were washed with RPMI 1640 medium and replaced in normal drug-free culture conditions. The time to parasite recrudescence was determined as the time required to reach initial parasitemia. […] Each experiment, performed in parallel for F32-ART5 and F32-TEM cultivated under the same conditions to generate paired results, was carried out at least three times independently and data statistically analyzed.
A statistical analysis (log-rank test) was carried out on data from the recrudescence assay and the QSA using a Kaplan-Meier survival analysis considering censored data. The final event was defined as the time necessary for cultures to reach initial parasitemia. […]

For data set [2], the system named is P. yoelii in mice and Anopheles stephensi. Nature of the data set: In vivo transmission-blocking mosquito feeding assay. Conditions: for No. of mosquitoes infected/total no. of mosquitoes (%): untreated 82.8; for No. of oocysts per mosquito: untreated 106; for Mean % parasitemia ± SD: day 4 p.i. in mice prior to mosquito feeding, untreated 0.97 ± 0.17; for Mean % gametocytemia ± SD: day 4 p.i. in mice, untreated 0.05 ± 0.004. The protocol: Experimental mice were infected by i.p. inoculations of 10^7 erythrocytes parasitized with P. yoelii GOMO 15 to test the effect of M1 following two different protocols of drug treatment. Infected mice were randomly allocated into 6 groups (5 mice per group) corresponding to the 3 conditions (control [solvent], M1 50 mg/kg, and PQ 50 mg/kg) in both drug administration protocols. For the first protocol, mice were treated daily from day zero to day 3, while for the second protocol, treatment was administered only once, 4 days after the infection and 2 h before mosquito feeding ([37]). At day 3 p.i., the presence and maturity of gametocytes was checked by microscopic examination of Giemsa-stained thin blood films and live-blood observation to assess microgamete exflagellation density. Mice were then anesthetized and placed according to the treatment on the top of individual cages containing 100 glucose-starved Anopheles stephensi female mosquitoes, which were allowed to feed for 1 h. Unfed mosquitoes were removed from the cages. Seven days after the infectious blood meal, 30 mosquitoes were dissected and their midguts examined using a phase-contrast microscope (400×) to assess the presence of oocysts. Two weeks after the blood meal, the salivary glands of 30 mosquitos were dissected to estimate the average number of sporozoites per mosquito in each group.

Data set [3] concerns P. yoelii in HepG2-CD81 cells. Nature of the data set: Hepatic stage of P. yoelii in HepG2-CD81 cells. Particulars: Plasmodium yoelii; hepatic schizonts. Type of data set: cell-based. The protocol:
Hepatocytes were seeded into collagen-coated black 96-well plates and maintained at 37°C in 5% CO2 in complete medium. […] The infected culture plates were centrifuged for 10 min at 900 × g, allowing fast parasite sedimentation, and further incubated with serial dilutions of M1. […] DMSO was used as a negative control. The number, size, and shape of the parasites were determined using a CellInsight high-content screening platform equipped with Studio HCS software (ThermoFisher Scientific). The parasite immunostaining was done using an […]70 antibody raised in mice and a secondary anti-mouse antibody coupled to Alexa Fluor 488 ([43]). […] Thirty-seven images, representing more than 95% of the total bottom surface area of a culture well in 96-well plates, were captured for analysis. The custom script used for counting and measuring parasites first required identification of the objects based on a fluorescence intensity threshold. The object identity was then further validated based on size and morphological (shape) criteria. The presence of DAPI-associated fluorescence in the selected objects allowed their final selection and the rejection of false positives. […] The parasitic size reduction was calculated on the average object area using the total surface area of each selected object (μm^2).

Data set [4] can be described thus: Cytotoxicity on the MDCK renal cell line (MTT). Format: cell-based, canine. Particulars: dog, MDCK cells. The protocol: MDCK cell line (Madin-Darby Canine Kidney cells) was maintained at 37 °C, 5% CO2 with 90% humidity in DMEM supplemented with 5% fetal bovine serum, 1% L-glutamine (200 mM), penicillin (100 U/mL) and streptomycin (100 μg/mL) (complete medium). The evaluation of Gamhepathiopine cytotoxicity on this cell line was performed according to the method of Mosman with slight modifications. Briefly, 3.10^4 cells in 100 μL of complete medium were inoculated into each well of 96-well plates and incubated at 37 °C in a humidified 5% CO2. After 24 h incubation, to obtain adherent cells, 100 μL of medium with various concentrations of Gamhepathipoine dissolved in DMSO were added and refreshed on a daily basis for 72 h at 37 °C. Each sample was tested on 4 technical replicates. The MTT solution (100µL/well, 0.5 mg/mL in medium without FBS) was then added to each well. Cells were incubated for 4 h at 37 °C. The MTT solution was then removed and a mixture of DMSO/Ethanol (1:1; 100 μL/well) was added to dissolve the resulting blue formazan crystals. The absorbance was measured at 540 nm on a Flex Station Microplate Reader.

For another data set, the system named is HepG2 or CHO cell lines. Details: method as in PMID 25791675. Particulars: cited from earlier work.
On the set-up of data set [5]: method as in PMID 25791675. Particulars: cited from earlier work.
The mark [6] stands for this setting: 50 mg/kg i.p. every day D0 to D3.
Where [7] appears, read: 50 mg/kg i.p. on day 3, 2 h before feeding.

Turning to `Cc1ccc(-c2cc3nc(NC(C)(C)C)[nH]c(=O)c3s2)cc1` [Metabolite M1, 2-(tert-Butylamino)-6-(p-tolyl)thieno[3,2-d]pyrimidin-4(3H)-one], in data set [1], the “recrudescence of F32-ART5 versus F32-TEM (cross-resistance with artemisinin)” value is reported as “no cross-resistance with artemisinin”. In addition, in data set [2] (50 mg/kg during D0 to D3, day 4), the “reduction in parasitemia before mosquito feeding” value is given as 50%. Moreover, in data set [2] (setting [6]), the “No. of mosquitoes infected/total no. of mosquitoes (%)” value is recorded as 25/35 (71.4) %, the “No. of oocysts per mosquito” value worked out at 32, the “Mean % parasitemia ± SD” value was found to be 0.47 ± 0.24% and the “Mean % gametocytemia ± SD” value is reported as 0.04 ± 0.009%. In data set [2] (setting [7]), the “No. of mosquitoes infected/total no. of mosquitoes (%)” value was 13/35 (37.1) %, the “No. of oocysts per mosquito” value is given as 1, the “Mean % parasitemia ± SD” value is given as 0.99 ± 0.34% and the “Mean % gametocytemia ± SD” value amounted to 0.04 ± 0.01%. In data set [3], this molecule returned an EC50 of 0.067 µM. This molecule came in with a CC50 at 72 h in data set [4] of 39.5 µM. Moreover, in the data set with HepG2 or CHO cell lines, the CC50 was at least 25 µM. In addition, in data set [5], the Ames test entry is reported as “negative”.
